Test results from paper PMC7914897, “Cytotoxic Potential of a-Azepano- and 3-Amino-3,4-SeCo-Triterpenoids” (International Journal of Molecular Sciences, 2021).

Legend:
OVCAR-8 (Ovarian cancer) = experiment: NCI-60 screen (SRB, 48 h); conditions: Homo sapiens
T-47D (Breast cancer) = experiment: NCI-60 screen (SRB, 48 h); conditions: Homo sapiens, T47D
MCF7 (Breast cancer) = experiment: NCI-60 screen (SRB, 48 h); conditions: Homo sapiens
SK-MEL-2 (Melanoma) = experiment: NCI-60 screen (SRB, 48 h); conditions: Homo sapiens
Prostate cancer subpanel = experiment: NCI-60 screen, subpanel; conditions: Homo sapiens
ACHN (Renal cancer) = experiment: NCI-60 screen (SRB, 48 h); conditions: Homo sapiens
HOP-62 (NSC lung cancer) = experiment: NCI-60 screen (SRB, 48 h); conditions: Homo sapiens
K-562 (Leukemia) = experiment: NCI-60 screen (SRB, 48 h); conditions: Homo sapiens
HCT-15 (Colon cancer) = experiment: NCI-60 screen (SRB, 48 h); conditions: Homo sapiens
SN12C (Renal cancer) = experiment: NCI-60 screen (SRB, 48 h); conditions: Homo sapiens
MALME-3M (Melanoma) = experiment: NCI-60 screen (SRB, 48 h); conditions: Homo sapiens
DU-145 (Prostate cancer) = experiment: NCI-60 screen (SRB, 48 h); conditions: Homo sapiens
COLO 205 (Colon cancer) = experiment: NCI-60 screen (SRB, 48 h)
SF-295 (CNS cancer) = experiment: NCI-60 screen (SRB, 48 h); conditions: Homo sapiens
M14 (Melanoma) = experiment: NCI-60 screen (SRB, 48 h)
Renal Cancer subpanel = experiment: NCI-60 screen, subpanel; conditions: Homo sapiens
HS 578T (Breast cancer) = experiment: NCI-60 screen (SRB, 48 h); conditions: Homo sapiens
SK-MEL-28 (Melanoma) = experiment: NCI-60 screen (SRB, 48 h)
SNB-19 (CNS cancer) = experiment: NCI-60 screen (SRB, 48 h); conditions: Homo sapiens
Ovarian Cancer subpanel = experiment: NCI-60 screen, subpanel; conditions: Homo sapiens
HOP-92 (NSC lung cancer) = experiment: NCI-60 screen (SRB, 48 h); conditions: Homo sapiens
UACC-62 (Melanoma) = experiment: NCI-60 screen (SRB, 48 h); conditions: Homo sapiens
SW-620 (Colon cancer) = experiment: NCI-60 screen (SRB, 48 h); conditions: Homo sapiens
[1] = test system: A549/ATCC (NSC lung cancer); experiment: NCI-60 screen (SRB, 48 h); conditions: Homo sapiens
EKVX (NSC lung cancer) = experiment: NCI-60 screen (SRB, 48 h); conditions: Homo sapiens
[2] = test system: NCI/ADR-RES (Ovarian cancer); experiment: NCI-60 screen (SRB, 48 h); conditions: Homo sapiens
UO-31 (Renal cancer) = experiment: NCI-60 screen (SRB, 48 h); conditions: Homo sapiens
[3] = test system: NCI-H23 (NSC lung cancer); experiment: NCI-60 screen (SRB, 48 h); conditions: Homo sapiens

For `CC1(C)CC[C@]2(CO)CC[C@]3(C)C(=CC[C@@H]4[C@@]5(C)CCCNC(C)(C)[C@@H]5CC[C@]43C)[C@@H]2C1` [Compound 3, azepanoerythrodiol], the GI50 (OVCAR-8 (Ovarian cancer); OVCAR-8) was 3.83 µM, the IC (TGI) (OVCAR-8 (Ovarian cancer); OVCAR-8, 48 h, read-out: TGI) was 15.6 µM and the CC50 (OVCAR-8 (Ovarian cancer); OVCAR-8, read-out: LC50) was 54.1 µM. For the same molecule, the GI50 (T-47D (Breast cancer)) was 4.08 µM, the IC (TGI) (T-47D (Breast cancer); 48 h, read-out: TGI) was 16.3 µM and the CC50 (T-47D (Breast cancer); read-out: LC50) was 48.6 µM. It also gave a GI50 (MCF7 (Breast cancer); MCF7) of 2.16 µM, an IC (TGI) (MCF7 (Breast cancer); MCF7, 48 h, read-out: TGI) of 5.54 µM and a CC50 (MCF7 (Breast cancer); MCF7, read-out: LC50) of 22.7 µM. For the same molecule, the GI50 (SK-MEL-2 (Melanoma); SK-MEL-2) was 3.25 µM, the IC (TGI) (SK-MEL-2 (Melanoma); SK-MEL-2, 48 h, read-out: TGI) was 8.17 µM and the CC50 (SK-MEL-2 (Melanoma); SK-MEL-2, read-out: LC50) was 36.7 µM. It also gave an IC (TGI) (Prostate cancer subpanel; 48 h, read-out: TGI MG_MID) of 4.02 µM, a GI50 (Prostate cancer subpanel; read-out: GI50 MG_MID) of 1.89 µM and a CC50 (Prostate cancer subpanel; read-out: LC50 MG_MID) of 8.54 µM. The GI50 (ACHN (Renal cancer)) was 3.44 µM, the IC (TGI) (ACHN (Renal cancer); 48 h, read-out: TGI) was 11.5 µM and the CC50 (ACHN (Renal cancer); read-out: LC50) was 38.3 µM. It also gave a GI50 (HOP-62 (NSC lung cancer); HOP-62) of 5.89 µM, an IC (TGI) (HOP-62 (NSC lung cancer); HOP-62, 48 h, read-out: TGI) of 20.4 µM and a CC50 (HOP-62 (NSC lung cancer); HOP-62, read-out: LC50) of 58.9 µM. The GI50 (K-562 (Leukemia); K562) was 0.4 µM, the IC (TGI) (K-562 (Leukemia); K562, 48 h, read-out: TGI) was over 100 µM and the CC50 (K-562 (Leukemia); K562, read-out: LC50) was over 100 µM. The GI50 (HCT-15 (Colon cancer); HCT-15) was 3.06 µM, the IC (TGI) (HCT-15 (Colon cancer); HCT-15, 48 h, read-out: TGI) was 1.04 µM and the CC50 (HCT-15 (Colon cancer); HCT-15, read-out: LC50) was 42.3 µM. The GI50 (SN12C (Renal cancer)) was 4.02 µM, the IC (TGI) (SN12C (Renal cancer); 48 h, read-out: TGI) was 16.8 µM and the CC50 (SN12C (Renal cancer); read-out: LC50) was 45.6 µM. For the same molecule, the GI50 (MALME-3M (Melanoma)) was 2.02 µM, the IC (TGI) (MALME-3M (Melanoma); 48 h, read-out: TGI) was 3.56 µM and the CC50 (MALME-3M (Melanoma); read-out: LC50) was 6.27 µM. It also gave a GI50 (DU-145 (Prostate cancer); DU-145) of 2.3 µM, an IC (TGI) (DU-145 (Prostate cancer); DU-145, 48 h, read-out: TGI) of 4.7 µM and a CC50 (DU-145 (Prostate cancer); DU-145, read-out: LC50) of 9.61 µM. For the same molecule, the “Growth % of the Most Sensitive Cell Lines” value (“Growth %” for short) (COLO 205 (Colon cancer); COLO 205, 1 dose 10 µM) was −88.44%, the GI50 (COLO 205 (Colon cancer); Homo sapiens, COLO 205) was 1.83 µM and the IC (TGI) (COLO 205 (Colon cancer); Homo sapiens, COLO 205, 48 h, read-out: TGI) was 3.25 µM. For the same molecule, the CC50 (COLO 205 (Colon cancer); Homo sapiens, COLO 205, read-out: LC50) was 5.77 µM, the GI50 (SF-295 (CNS cancer); SF-295) was 1.77 µM and the IC (TGI) (SF-295 (CNS cancer); SF-295, 48 h, read-out: TGI) was 3.62 µM. The CC50 (SF-295 (CNS cancer); SF-295, read-out: LC50) was 7.4 µM, the GI50 (M14 (Melanoma); Homo sapiens, M14) was 2.04 µM and the IC (TGI) (M14 (Melanoma); Homo sapiens, M14, 48 h, read-out: TGI) was 3.87 µM. The CC50 (M14 (Melanoma); Homo sapiens, M14, read-out: LC50) was 7.34 µM, the “Growth %” value (M14 (Melanoma); M14, 1 dose 10 µM) was −82.21% and the IC (TGI) (Renal Cancer subpanel; 48 h, read-out: TGI MG_MID) was 17.4 µM. It also gave a GI50 (Renal Cancer subpanel; read-out: GI50 MG_MID) of 5.94 µM, a CC50 (Renal Cancer subpanel; read-out: LC50 MG_MID) of 49.7 µM and a GI50 (HS 578T (Breast cancer)) of 6.16 µM. For the same molecule, the IC (TGI) (HS 578T (Breast cancer); 48 h, read-out: TGI) was 24.7 µM, the CC50 (HS 578T (Breast cancer); read-out: LC50) was 77.4 µM and the GI50 (SK-MEL-28 (Melanoma); Homo sapiens, SK-MEL-28) was 1.7 µM. For the same molecule, the IC (TGI) (SK-MEL-28 (Melanoma); Homo sapiens, SK-MEL-28, 48 h, read-out: TGI) was 3.14 µM, the CC50 (SK-MEL-28 (Melanoma); Homo sapiens, SK-MEL-28, read-out: LC50) was 5.78 µM and the “Growth %” value (SK-MEL-28 (Melanoma); SK-MEL-28, 1 dose 10 µM) was −81.53%. The GI50 (SNB-19 (CNS cancer); SNB-19) was 11.7 µM, the IC (TGI) (SNB-19 (CNS cancer); SNB-19, 48 h, read-out: TGI) was 2.61 µM and the CC50 (SNB-19 (CNS cancer); SNB-19, read-out: LC50) was 58.1 µM. It also gave an IC (TGI) (Ovarian Cancer subpanel; 48 h, read-out: TGI MG_MID) of 19.1 µM, a GI50 (Ovarian Cancer subpanel; read-out: GI50 MG_MID) of 7.75 µM and a CC50 (Ovarian Cancer subpanel; read-out: LC50 MG_MID) of 45.6 µM. The GI50 (HOP-92 (NSC lung cancer); HOP-92) was 1.36 µM, the IC (TGI) (HOP-92 (NSC lung cancer); HOP-92, 48 h, read-out: TGI) was 30.7 µM and the CC50 (HOP-92 (NSC lung cancer); HOP-92, read-out: LC50) was 6.92 µM. It also gave a GI50 (UACC-62 (Melanoma); UACC-62) of 1.92 µM, an IC (TGI) (UACC-62 (Melanoma); UACC-62, 48 h, read-out: TGI) of 3.93 µM and a CC50 (UACC-62 (Melanoma); UACC-62, read-out: LC50) of 8.07 µM. It also gave a GI50 (SW-620 (Colon cancer); SW-620) of 1.91 µM, an IC (TGI) (SW-620 (Colon cancer); SW-620, 48 h, read-out: TGI) of 4 µM and a CC50 (SW-620 (Colon cancer); SW-620, read-out: LC50) of 8.35 µM. For the same molecule, the GI50 ([1]; A549) was 4.62 µM, the IC (TGI) ([1]; A549, 48 h, read-out: TGI) was 17.8 µM and the CC50 ([1]; A549, read-out: LC50) was 52.4 µM. The GI50 (EKVX (NSC lung cancer)) was 4.04 µM, the IC (TGI) (EKVX (NSC lung cancer); 48 h, read-out: TGI) was 20.1 µM and the CC50 (EKVX (NSC lung cancer); read-out: LC50) was over 100 µM. For the same molecule, the GI50 [2] was 10.2 µM, the IC (TGI) ([2]; 48 h, read-out: TGI) was 24 µM and the CC50 ([2]; read-out: LC50) was 56.3 µM. It also gave a GI50 (UO-31 (Renal cancer); UO-31) of 10.5 µM, an IC (TGI) (UO-31 (Renal cancer); UO-31, 48 h, read-out: TGI) of 25.5 µM and a CC50 (UO-31 (Renal cancer); UO-31, read-out: LC50) of 62.1 µM. For the same molecule, the GI50 ([3]; NCI-H23) was 1.11 µM, the IC (TGI) ([3]; NCI-H23, 48 h, read-out: TGI) was 24.6 µM and the CC50 ([3]; NCI-H23, read-out: LC50) was 54.5 µM.
